Reference: US20200181121A1, “Cocrystal of Telmisartan and Hydrochlorothiazide” (SHANGHAI INSTITUTE OF MATERIA MEDICA, CHINESE ACADEMY OF …, priority 2017, published 2020)

Experiment: Accelerated stability test (ICH Q1E), change of the content
Type: physicochemical
Conditions: 40°C±2°C, RH 75±5%, polyethylene-sealed bag
Description: According to the description in “Stability Data Evaluation” of ICH guidelines Q1E, a comparison of accelerated stability test (at 40° C.±2° C., RH 75±5%) of cocrystal of hydrochlorothiazide and telmisartan obtained in Example 1 with that of telmisartan or hydrochlorothiazide itself was conducted respectively. The cocrystal of telmisartan and hydrochlorothiazide, telmisartan, and hydrochlorothiazide were double packaged using the polyethylene-sealed bag respectively, stood for 1, 2 or 3 months under the accelerated stability test conditions (at 40° C.±2° C., RH 75±5%). Then the samples were taken and measured for the change of the content.

| content of telmisartan (0 month) [%] | content of telmisartan (1 month) [%] | content of telmisartan (2 months) [%] | content of telmisartan (3 months) [%] | content of hydrochlorothiazide (0 month) [%] | content of hydrochlorothiazide (1 month) [%] | content of hydrochlorothiazide (2 months) [%] | content of hydrochlorothiazide (3 months) [%] | Compound |
| --- | --- | --- | --- | --- | --- | --- | --- | --- |
| 100 | 97.28 | 94.47 | 94.20 | – | – | – | – | CCCc1nc2c(C)cc(-c3nc4ccccc4n3C)cc2n1Cc1ccc(-c2ccccc2C(=O)O)cc1 [Telmisartan, 4′-[[2-propyl-4-methyl-6(1-methyl-benzimidazol-2-yl)-benzimidazol-1-yl]methyl]-2-biphenylcarboxylic acid] |
| – | – | – | – | 100 | 97.37 | 96.34 | 95.28 | NS(=O)(=O)c1cc2c(cc1Cl)NCNS2(=O)=O [Hydrochlorothiazide, 6-chloro-3,4-dihydro-2H-1,2,4-benzothiadiazine-7-sulfonamido-1,1-dioxide] |
